Values joined by “and” are separate entries in the source; they are usually repeats but may differ in a detail not shown here. Equal entries are not always repeated. “Also recorded” adds a separate entry of the source.
Experiments:
ICR-derived mice = experiment: Phenylquinone-induced writhing assay in mice, IP and oral (Example 17); type: in vivo; conditions: for % Inhibition / Number of Writhings Average / Number of Writhings Individual: Table 2; for Number of Writhings Individual: individual mice; for Died (mortality, animals of group of 3): within 30 minutes after administration
Procedure: Further testing on compound KRS-5–150 was carried out under contract by MDS Pharma Services—Taiwan Ltd. The study was designed to evaluate the effects of the compound as an analgesic in the phenylquinone-induced writhing assay, which was described in the previous example, and in the radiant heat-induced tail-flick response assay in mice (D'Amour et al., 1941).
For the phenylquinone writhing test, groups of three male or female ICR-derived mice weighing 22±2 g were used. For the phenylquinone writhing test, KRS-5-150 at doses of 1, 2, 4, 8, 16, 32, 64 and 128 mg/kg in either 2% Tween 80/0.9% NaCl or in 2% Tween 80 was used for intraperitoneal administration, or at doses of 1, 2, 4, 8, 16, 32 or 64 mg/kg in the same vehicles for oral administration. Control animals received vehicle alone. […] A reduction in the number of writhes by 50% or more (≧50%) relative to the vehicle-treated group indicated possible analgesic activity.

ICR mice [1] = experiment: Radiant heat-induced tail-flick response assay in mice; type: in vivo; conditions: IP; for % Inhibition (prolongation of tail-flick response time): 30 minutes; for Response Time (Seconds) 30 Mins., Average / Response Time (Seconds) 30 Mins.: 30 minutes after administration; for Response Time (Seconds) 30 Mins. / Response Time (Seconds) 0 Time: individual mice; for Response Time (Seconds) 30 Mins.: cut-off 15 seconds; for Response Time (Seconds) 0 Time / Response Time (Seconds) 0 Time, Average: pre-treatment (0 minutes)
Procedure: For the tail-flick assay, groups of four male or female ICR mice weighing 22±2 g were used, and the test compound dissolved in 2% Tween 80/0.9% NaCl was administered intraperitoneally. The compound was administered intraperitoneally at 4, 8, 16 or 32 mg/kg, using 2% Tween 80—0.9% NaCl as the vehicle. Controls received vehicle alone. Morphine-HCl at a dose of 10 mg/kg was used as a positive control. At the pre-treatment point (0 minutes) a focused beam of radiant heat was applied to the middle dorsal surface of the tail to elicit a tail-flick response. […] The time required to elicit a pain response was recorded for each animal at 30 minutes following administration of the test compound. A prolongation of 50% or more ≧50% of the time required to elicit tail-flick response indicated possible analgesic activity.

human κ-opiate receptor = biological target: T1, human κ-opiate receptor (Homo sapiens, UniProt P41145); experiment: In vitro opiate receptor radioligand binding assay, κ; conditions: test compound 10 μM
T1 construct: purchased MDS Pharma Services 260210
Procedure: (§1) To characterise the target specificity of the compounds, KRS-5-150 and KRS-6-26 were tested at a concentration of 10 μM for their ability to inhibit the binding of a radioligand to human δ-, κ-, or μ-opiate receptors in vitro using commercially available assays (MDS Pharma Services; assay catalogue numbers 260110, 260210 and 260410 respectively).
(§2) Percentage inhibition of radioligand binding to human opioid receptors in vitro by test compounds (10 μM)

human μ-opiate receptor = biological target: T2, human μ-opiate receptor (Homo sapiens, UniProt P35372); experiment: In vitro opiate receptor radioligand binding assay, μ; conditions: test compound 10 μM
T2 construct: purchased MDS Pharma Services 260410
Procedure: as §1, §2

ICR mice [2] = experiment: Straub tail behaviour (indicator of CNS activity) and observed signs in test animals
Excerpt: The Straub test is an indicator of CNS activity.
The tail-flick test is thought to involve central nervous system activity, and therefore provides further confirmation of the Straub tail test.

T2 sequence (P35372 whole entry): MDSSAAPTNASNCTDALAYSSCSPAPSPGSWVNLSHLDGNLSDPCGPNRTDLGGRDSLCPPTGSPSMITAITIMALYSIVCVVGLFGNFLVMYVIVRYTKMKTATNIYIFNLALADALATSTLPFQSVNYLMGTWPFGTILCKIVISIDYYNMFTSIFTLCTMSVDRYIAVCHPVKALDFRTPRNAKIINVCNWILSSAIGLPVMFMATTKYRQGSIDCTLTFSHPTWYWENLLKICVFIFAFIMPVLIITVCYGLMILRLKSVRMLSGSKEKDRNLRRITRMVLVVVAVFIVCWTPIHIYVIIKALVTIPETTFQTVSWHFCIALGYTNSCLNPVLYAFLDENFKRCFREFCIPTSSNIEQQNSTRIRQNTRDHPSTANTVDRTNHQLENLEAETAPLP
T1 sequence (P41145 whole entry): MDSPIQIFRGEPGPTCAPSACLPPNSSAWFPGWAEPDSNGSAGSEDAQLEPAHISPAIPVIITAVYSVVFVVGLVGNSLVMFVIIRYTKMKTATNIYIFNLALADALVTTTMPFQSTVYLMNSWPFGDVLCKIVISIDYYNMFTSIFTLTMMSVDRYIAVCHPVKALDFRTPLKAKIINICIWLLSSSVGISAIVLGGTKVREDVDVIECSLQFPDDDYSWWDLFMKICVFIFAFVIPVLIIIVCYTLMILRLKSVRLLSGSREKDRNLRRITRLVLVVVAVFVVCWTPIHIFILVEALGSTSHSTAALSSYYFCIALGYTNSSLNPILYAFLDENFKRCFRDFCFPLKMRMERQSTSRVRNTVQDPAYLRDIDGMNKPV

## Oc1ccc2c3c1O[C@H]1[C@@H](O)C=C[C@H]4[C@@H](C2)N(CCCNC(=Nc2ccccc2)Nc2ccccc2)CC[C@@]341 [KRS-5-150, (5α,6α)-7,8 didehydro-4,5-epoxy-17-(N,N′-bisphenylcarboxamidino-3-aminopropyl)morphinan,3,6-diol]
ICR-derived mice; IP, 1 mg/kg
  % Inhibition: 13%
  Number of Writhings Average: 14
  Number of Writhings Individual: 16 and 13 and 14
ICR-derived mice; IP, 2 mg/kg
  % Inhibition: 31%
  Number of Writhings Average: 11
  Number of Writhings Individual: 13 and 11 and 8
ICR-derived mice; IP, 4 mg/kg
  % Inhibition: (56) %
  Number of Writhings Average: 7
  Number of Writhings Individual: 2 and 11 and 8
ICR-derived mice; IP, 8 mg/kg
  % Inhibition: (88) %
  Number of Writhings Average: 2
  Number of Writhings Individual: 0 and 4 and 2
ICR-derived mice; IP, 16 mg/kg
  % Inhibition: (69) %
  Number of Writhings Average: 5
  Number of Writhings Individual: 4 and 2 and 9
ICR-derived mice; IP, 32 mg/kg
  % Inhibition: (100) %
  Number of Writhings Average: 0
  Number of Writhings Individual: 0
ICR-derived mice; IP, 64 mg/kg
  Number of Writhings Individual: Died and 0 (2×)
ICR-derived mice; IP, 64 mg/kg, 64 mg/kg
  Died (mortality, animals of group of 3): 1 of 3 and ⅓ and 1/3 Died
ICR-derived mice; IP, 128 mg/kg
  Number of Writhings Individual: 0 and Died (2×)
ICR-derived mice; IP, 128 mg/kg, 128 mg/kg
  Died (mortality, animals of group of 3): 2 of 3 and ⅔ and 2/3 Died
ICR-derived mice; given IP
  analgesic activity in writhing test: active
ICR-derived mice; intraperitoneal, doses of 4, 8, 16 and 32 mg/kg
  analgesic activity (≧50% reduction in writhes): Significant activity
ICR-derived mice; oral administration, 1 to 64 mg/kg
  analgesic activity (≧50% reduction in writhes): not when given orally; also recorded: not after oral administration
ICR-derived mice; oral, 1 mg/kg
  % Inhibition: 0%
  Number of Writhings Average: 16
  Number of Writhings Individual: 25 and 8 and 14
ICR-derived mice; oral, 2 mg/kg
  % Inhibition: 0%
  Number of Writhings Average: 14
  Number of Writhings Individual: 9 and 21 and 11
ICR-derived mice; oral, 4 mg/kg
  % Inhibition: 0%
  Number of Writhings Average: 14
  Number of Writhings Individual: 9 and 15 and 17
ICR-derived mice; oral, 8 mg/kg
  % Inhibition: 0%
  Number of Writhings Average: 15
  Number of Writhings Individual: 17 and 21 and 6
ICR-derived mice; oral, 16 mg/kg
  % Inhibition: 0%
  Number of Writhings Average: 14
  Number of Writhings Individual: 6 and 17 and 18
ICR-derived mice; oral, 32 mg/kg
  % Inhibition: 0%
  Number of Writhings Average: 15
  Number of Writhings Individual: 12 and 14 and 18
ICR-derived mice; oral, 64 mg/kg
  % Inhibition: 14%
  Number of Writhings Average: 12
  Number of Writhings Individual: 12 and 5 and 18
ICR mice [1]; 4 mg/kg
  % Inhibition (prolongation of tail-flick response time): 5%
  Response Time (Seconds) 30 Mins., Average: 6.6 s
  Response Time (Seconds) 0 Time: 6.3 Seconds (2×) and 6.4 Seconds and 6.2 Seconds
  Response Time (Seconds) 0 Time, Average: 6.3 s
ICR mice [1]; 4 mg/kg, 4 mg/kg
  Response Time (Seconds) 30 Mins.: 6.2 Seconds (2×) and 6.4 Seconds and 7.4 Seconds
ICR mice [1]; 8 mg/kg
  % Inhibition (prolongation of tail-flick response time): 3%
  Response Time (Seconds) 30 Mins., Average: 6.6 s
  Response Time (Seconds) 0 Time: 6.3 Seconds (2×) and 6.5 Seconds and 6.4 Seconds
  Response Time (Seconds) 0 Time, Average: 6.4 s
ICR mice [1]; 8 mg/kg, 8 mg/kg
  Response Time (Seconds) 30 Mins.: 6.4 s and 6.8 s and 6.5 s and 6.7 s
ICR mice [1]; 16 mg/kg
  % Inhibition (prolongation of tail-flick response time): 2%
  Response Time (Seconds) 30 Mins., Average: 6.4 s
  Response Time (Seconds) 0 Time: 6.2 Seconds (2×) and 6.3 Seconds and 6.4 Seconds
  Response Time (Seconds) 0 Time, Average: 6.3 s
ICR mice [1]; 16 mg/kg, 16 mg/kg
  Response Time (Seconds) 30 Mins.: 6.3 s and 6.5 s and 6.2 s and 6.4 s
ICR mice [1]; 32 mg/kg
  % Inhibition (prolongation of tail-flick response time): 19%
  Response Time (Seconds) 30 Mins., Average: 7.6 s
  Response Time (Seconds) 0 Time: 6.5 Seconds and 6.3 Seconds (2×) and 6.4 Seconds
  Response Time (Seconds) 0 Time, Average: 6.4 s
ICR mice [1]; 32 mg/kg, 32 mg/kg
  Response Time (Seconds) 30 Mins.: 6.7 s and 8.7 s and 6.5 s and 8.4 s
ICR mice [1]; 4, 8, 16 and 32 mg/kg
  analgesic activity in tail-flick assay (≧50% prolongation): none of the four doses used showed significant activity
Human κ-opiate receptor
  Percentage inhibition of radioligand binding, κ-opiate receptor: 79%
Human μ-opiate receptor
  Percentage inhibition of radioligand binding, μ-opiate receptor: 98%
ICR mice [2]; 128 mg/kg IP, Example 17
  test animals exhibiting an increase in respiratory depth: 3 of 3
  test animals exhibiting slight anoxia: 3 of 3
  test animals exhibiting slight tremors: 3 of 3
ICR mice [2]; Example 17 (writhing and tail-flick studies)
  Straub tail behaviour: None of the mice given KRS-5-150 exhibited Straub tail behaviour
ICR mice [2]; IP, 2 to 64 mg/kg, Example 16
  Straub tail behaviour: did not exhibit Straub tail behaviour

Source: patent publication US7199129B2, “Derivatives of morphine-like opioid compounds” (Monash University, priority 2001, dated 2007)
